The NIST ThermoML archive (doi:10.1016/j.jct.2009.06.008)
“And” between values parts separate entries of the source, which are not always exact repeats. Equal values may be shown once. Numbers after ± are expanded uncertainties.

Conditions: Crystal, Calculated from knudsen effusion weight loss

O=[N+]([O-])c1ccccc1Br [1-bromo-2-nitrobenzene]
Conditions | vapor or sublimation pressure
275.15 K | 9.5e-05 ± 5e-06 kPa and 9.4e-05 ± 5e-06 kPa
277.15 K | 0.000124 ± 6e-06 kPa and 0.000123 ± 6e-06 kPa
279.16 K | 0.000164 ± 8e-06 kPa and 0.000165 ± 8e-06 kPa
281.17 K | 0.00021 ± 1.1e-05 kPa and 0.000212 ± 1.1e-05 kPa and 0.000208 ± 1e-05 kPa
283.17 K | 0.000279 ± 1.4e-05 kPa and 0.00028 ± 1.4e-05 kPa and 0.000277 ± 1.4e-05 kPa
285.17 K | 0.000351 ± 1.8e-05 kPa and 0.000353 ± 1.8e-05 kPa and 0.00035 ± 1.8e-05 kPa
287.21 K | 0.000451 ± 2.3e-05 kPa and 0.000459 ± 2.3e-05 kPa and 0.000448 ± 2.2e-05 kPa
289.17 K | 0.000581 ± 2.9e-05 kPa and 0.000592 ± 3e-05 kPa and 0.000594 ± 3e-05 kPa
291.14 K | 0.000733 ± 3.7e-05 kPa and 0.000729 ± 3.7e-05 kPa and 0.000735 ± 3.7e-05 kPa
293.14 K | 0.000913 ± 4.6e-05 kPa and 0.000939 ± 4.7e-05 kPa and 0.000925 ± 4.6e-05 kPa
295.16 K | 0.001204 ± 0.00013 kPa and 0.00121 ± 0.00013 kPa and 0.001218 ± 0.00013 kPa

O=[N+]([O-])c1cccc(Br)c1 [1-bromo-3-nitrobenzene]
Conditions | vapor or sublimation pressure
279.57 K | 0.000143 ± 7e-06 kPa and 0.000142 ± 7e-06 kPa and 0.000141 ± 7e-06 kPa
281.21 K | 0.000184 ± 9e-06 kPa and 0.000183 ± 9e-06 kPa and 0.000181 ± 9e-06 kPa
283.14 K | 0.000238 ± 1.2e-05 kPa and 0.000237 ± 1.2e-05 kPa and 0.000236 ± 1.2e-05 kPa
285.16 K | 0.000299 ± 1.5e-05 kPa and 0.000294 ± 1.5e-05 kPa and 0.000301 ± 1.5e-05 kPa
287.19 K | 0.000398 ± 2e-05 kPa and 0.000385 ± 1.9e-05 kPa and 0.000381 ± 1.9e-05 kPa
289.39 K | 0.000507 ± 2.5e-05 kPa and 0.000506 ± 2.5e-05 kPa and 0.000496 ± 2.5e-05 kPa
291.16 K | 0.000649 ± 3.3e-05 kPa and 0.00065 ± 3.3e-05 kPa and 0.000635 ± 3.2e-05 kPa
293.15 K | 0.000817 ± 4.1e-05 kPa and 0.000815 ± 4.1e-05 kPa and 0.00079 ± 4e-05 kPa
295.17 K | 0.001067 ± 0.00011 kPa and 0.001054 ± 0.00011 kPa and 0.001033 ± 0.0001 kPa

O=[N+]([O-])c1ccc(Br)cc1 [1-bromo-4-nitrobenzene]
Conditions | vapor or sublimation pressure
289.15 K | 0.000103 ± 5e-06 kPa and 0.000101 ± 5e-06 kPa and 9.9e-05 ± 5e-06 kPa
291.12 K | 0.000122 ± 6e-06 kPa and 0.000119 ± 6e-06 kPa and 0.00012 ± 6e-06 kPa
293.14 K | 0.00017 ± 9e-06 kPa and 0.000165 ± 8e-06 kPa and 0.000161 ± 8e-06 kPa
295.15 K | 0.000209 ± 1e-05 kPa and 0.000202 ± 1e-05 kPa
297.14 K | 0.000255 ± 1.3e-05 kPa and 0.000248 ± 1.2e-05 kPa
299.15 K | 0.000332 ± 1.7e-05 kPa and 0.000337 ± 1.7e-05 kPa and 0.000333 ± 1.7e-05 kPa
301.13 K | 0.000427 ± 2.1e-05 kPa and 0.00041 ± 2.1e-05 kPa and 0.000409 ± 2e-05 kPa
303.14 K | 0.000526 ± 2.6e-05 kPa and 0.000537 ± 2.7e-05 kPa and 0.00052 ± 2.6e-05 kPa
305.14 K | 0.000644 ± 3.2e-05 kPa and 0.000653 ± 3.3e-05 kPa and 0.000624 ± 3.1e-05 kPa
307.14 K | 0.0008 ± 4e-05 kPa and 0.000809 ± 4.1e-05 kPa and 0.000788 ± 3.9e-05 kPa
309.15 K | 0.00105 ± 0.00011 kPa and 0.001036 ± 0.0001 kPa and 0.00101 ± 0.0001 kPa
